Measured values from patent US20230183218A1, “CONDENSED SUBSTITUTED HYDROPYRROLES AS ANTAGONISTS OF THE MUSCARINIC ACETYLCHOLINE RECEPTOR M4” (Vanderbilt University, priority 2020, published 2023).

How the values were obtained:
[1] = target: T1, Rat M4 (Rattus norvegicus, UniProt P08485); assay: mAChR M4 cell-based functional assay (calcium flux, antagonist mode vs EC80 acetylcholine), rat M4/Gqi5/CHO-K1 cells; conditions: for remaining activity at 30 µM: CHO-K1, read-out: Rat M4 Emin (%); for IC50: decrease of response elicited by EC80 acetylcholine, rat M4/Gqi5 CHO-K1 cells
T1 construct: expressed in transfected cells; host or cells: CHO-K1 (ATCC), stably co-expressing chimeric G protein Gqi5
T1 sequence (P08485 1-478): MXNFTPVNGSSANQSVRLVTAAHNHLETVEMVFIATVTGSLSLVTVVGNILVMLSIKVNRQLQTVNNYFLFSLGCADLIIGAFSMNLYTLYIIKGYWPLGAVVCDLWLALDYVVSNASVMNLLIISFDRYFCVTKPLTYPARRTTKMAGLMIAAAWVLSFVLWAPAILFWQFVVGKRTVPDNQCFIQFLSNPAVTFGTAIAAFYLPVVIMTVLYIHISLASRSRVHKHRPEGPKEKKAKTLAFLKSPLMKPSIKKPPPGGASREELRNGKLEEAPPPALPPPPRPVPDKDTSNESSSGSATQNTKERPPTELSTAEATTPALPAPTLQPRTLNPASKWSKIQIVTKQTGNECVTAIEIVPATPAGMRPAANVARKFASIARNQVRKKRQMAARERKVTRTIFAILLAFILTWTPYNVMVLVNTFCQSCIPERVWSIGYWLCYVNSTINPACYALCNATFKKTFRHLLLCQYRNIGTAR
Procedure: (§1) Human or rat M4 cDNA, along with the chimeric G protein Gqi5, were transfected into Chinese hamster ovary (CHO-K1) cells purchased from the American Type Culture Collection using Lipofectamine2000. M4/Gqi5/CHO cells were grown in Ham's F-12 medium containing 10% heat-inactivated fetal bovine serum (FBS), 20 mM HEPES, 500 μg/mL G418 sulfate, and 200 μg/mL Hygromycin B.
(§2) For high throughput measurement of agonist-evoked increases in intracellular calcium, CHO-K1 cells stably expressing muscarinic receptors were plated in growth medium lacking G418 and hygromycin at 15,000 cells/20 μL/well in Greiner 384-well black-walled, tissue culture (TC)-treated, clear-bottom plates (VWR). Cells were incubated overnight at 37° C. and 5% CO2. The next day, cells were washed using an ELX 405 (BioTek) with assay buffer; the final volume was then aspirated to 20 μL. Next, 20 μL of a 2.3 μM stock of Fluo-4/acetoxymethyl ester (Invitrogen, Carlsbad, Calif.), prepared as a 2.3 mM stock in DMSO and mixed in a 1:1 ratio with 10% (w/v) Pluronic F-127 and diluted in assay buffer, was added to the wells and the cell plates were incubated for 50 min at 37° C. and 5% CO2. Dye was removed by washing with the ELX 405 and the final volume was aspirated to 20 μL. Compound master plates were formatted in a 10 point concentration-response curve (CRC) format (1:3 dilutions) in 100% DMSO with a starting concentration of 10 or 1 mM using a BRAVO liquid handler (Agilent). Test compound CRCs were then transferred to daughter plates (240 nL) using the Echo acoustic plate reformatter (Labcyte, Sunnyvale, Calif.) and then diluted into assay buffer (40 μL) to a 2× stock using a Thermo Fisher Combi (Thermo Fisher Scientific, Waltham, Mass.).
(§3) Calcium flux was measured using the Functional Drug Screening System (FDSS) 6000 or 7000 (Hamamatsu Corporation, Tokyo, Japan) as an increase in the fluorescent static ratio. Compounds were applied to cells (20 μL, 2×) using the automated system of the FDSS at 2 seconds into the protocol and the data were collected at 1 Hz. At 143 s, 10 μL of an EC20 concentration of the muscarinic receptor agonist acetylcholine was added (5×), followed by the addition of 12 μL of an EC80 concentration of acetylcholine at the 268 s time point (5×). Agonist activity was analyzed as a concentration-dependent increase in calcium mobilization upon compound addition. Positive allosteric modulator activity was analyzed as a concentration-dependent increase in the EC20 acetylcholine response. Antagonist activity was analyzed as a concentration-dependent decrease in the EC80 acetylcholine response; for the purposes of the tables herein, an IC50 (inhibitory concentration 50) was calculated as a concentration-dependent decrease of the response elicited by an EC80 concentration of acetylcholine. Concentration-response curves were generated using a four-parameter logistical equation in XLFit curve fitting software (IDBS, Bridgewater, N.J.) for Excel (Microsoft, Redmond, Wash.) or Prism (GraphPad Software, Inc., San Diego, Calif.) or the Dotmatics software platform (Dotmatics, Bishop's Stortford, UK).
(§4) Compounds were synthesized as described above. Activity (IC50 and Emin) was determined in the mAChR M4 cell-based functional assay as described above and the data are shown in Table 2.

[2] = target: T2, Human M4 (Homo sapiens, UniProt P08173); assay: mAChR M4 cell-based functional assay (calcium flux, antagonist mode vs EC80 acetylcholine), human M4/Gqi5/CHO-K1 cells; conditions: for remaining activity at 30 µM: CHO-K1, read-out: Human M4 Emin (%); for IC50: decrease of response elicited by EC80 acetylcholine, human M4/Gqi5 CHO-K1 cells
T2 construct: expressed in transfected cells; host or cells: CHO-K1 (ATCC), stably co-expressing chimeric G protein Gqi5
T2 sequence (P08173 1-479): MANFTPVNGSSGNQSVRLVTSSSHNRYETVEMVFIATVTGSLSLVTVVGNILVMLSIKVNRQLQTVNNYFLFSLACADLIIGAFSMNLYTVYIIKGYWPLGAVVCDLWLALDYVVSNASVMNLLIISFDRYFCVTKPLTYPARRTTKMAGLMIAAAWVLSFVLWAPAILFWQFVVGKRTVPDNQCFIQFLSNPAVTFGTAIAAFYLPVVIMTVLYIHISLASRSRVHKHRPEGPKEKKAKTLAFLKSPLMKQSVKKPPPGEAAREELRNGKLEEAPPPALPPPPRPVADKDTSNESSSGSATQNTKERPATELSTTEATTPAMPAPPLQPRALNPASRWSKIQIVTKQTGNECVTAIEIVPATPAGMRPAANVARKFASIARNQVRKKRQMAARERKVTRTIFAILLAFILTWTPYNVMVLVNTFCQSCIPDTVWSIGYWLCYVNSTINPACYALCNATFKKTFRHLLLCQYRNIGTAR
Procedure: as §1, §2, §3, §4

[3] = % ACh maximum at 30 μM, human M4

**Q.** How did the remaining activity at 30 µM ([1]; % ACh maximum at 30 μM, rat M4) turn out when `CC(=O)Nc1ccc(-c2ccc(N[C@H]3C[C@@H]4CN(C5CCOC(C)(C)C5)C[C@@H]4C3)nn2)cc1` (stereo partly drawn) [compound 20, N-(4-(6-(((3aR,5s,6aS)-2-(2,2-dimethyltetrahydro-2H-pyran-4-yl)octahydrocyclopenta[c]pyrrol-5-yl)amino)pyridazin-3-yl)phenyl)acetamide] was run?
**A.** 4%

**Q.** What about the IC50 [1] of the same molecule?
**A.** 129 nM

**Q.** What about the remaining activity at 30 µM [2, 3] of the same molecule?
**A.** 3%

**Q.** And the IC50 [2]?
**A.** 18.7 nM

**Q.** `CC1(C)CC(N2C[C@H]3C[C@H](Nc4ccc([S+]([O-])c5ccccc5)nn4)C[C@H]3C2)CCO1` (stereo partly drawn) [compound 65, (3aR,5s,6aS)-2-(2,2-dimethyltetrahydro-2H-pyran-4-yl)-N-(6-(phenylsulfinyl)pyridazin-3-yl)octahydrocyclopenta[c]pyrrol-5-amine] was tested. Which remaining activity at 30 µM ([1]; % ACh maximum at 30 μM, rat M4) did it give?
**A.** 10%

**Q.** What about the remaining activity at 30 µM [2, 3] of the same molecule?
**A.** 5%

**Q.** With `Fc1ccc(Cl)c(-c2ccc(N[C@H]3C[C@@H]4CN(C5COC5)C[C@@H]4C3)nn2)c1` [compound 14, (3aR,5s,6aS)-N-(6-(2-chloro-5-fluorophenyl)pyridazin-3-yl)-2-(oxetan-3-yl)octahydrocyclopenta[c]pyrrol-5-amine] as the molecule, how does the remaining activity at 30 µM ([1]; % ACh maximum at 30 μM, rat M4) read?
**A.** 51%

**Q.** And the IC50 [1]?
**A.** > 10000 nM

**Q.** What about the remaining activity at 30 µM [2, 3] of the same molecule?
**A.** 21%

**Q.** What about the IC50 [2] of the same molecule?
**A.** 5030 nM

**Q.** Which remaining activity at 30 µM ([1]; % ACh maximum at 30 μM, rat M4) does the source give for `Fc1ccc(Cl)c(-c2ccc(N[C@H]3C[C@@H]4CN(C5CCC6(CCOCC6)CC5)C[C@@H]4C3)nn2)c1` [compound 78, (3aR,5s,6aS)-N-(6-(2-chloro-5-fluorophenyl)pyridazin-3-yl)-2-(3-oxaspiro[5.5]undecan-9-yl)octahydrocyclopenta[c]pyrrol-5-amine] here?
**A.** 3%

**Q.** And the IC50 [1]?
**A.** 102 nM

**Q.** And the remaining activity at 30 µM [2, 3]?
**A.** 3%

**Q.** What about the IC50 [2] of the same molecule?
**A.** 2.3 nM

**Q.** What does the source list for `CC1(C)CC(N2C[C@H]3C[C@H](Nc4ccc(-c5ccc(F)cc5)nn4)C[C@H]3C2)CCO1` (stereo partly drawn) [compound 54, (3aR,5s,6aS)-2-(2,2-dimethyltetrahydro-2H-pyran-4-yl)-N-(6-(4-fluorophenyl)pyridazin-3-yl)octahydrocyclopenta[c]pyrrol-5-amine]?
**A.** remaining activity at 30 µM ([1]; % ACh maximum at 30 μM, rat M4): 5%; IC50 [1]: 534 nM; remaining activity at 30 µM [2, 3]: 3%; IC50 [2]: 32.9 nM

**Q.** What does the source list for `CC(C)(C)CCN1C[C@H]2C[C@H](Nc3ccc(S(=O)(=O)c4ccccc4)nn3)C[C@H]2C1` [compound 50, (3aR, 5s,6aS)-2-(3,3-dimethylbutyl)-N-(6-(phenylsulfonyl)pyridazin-3-yl)octahydrocyclopenta[c]pyrrol-5-amine]?
**A.** remaining activity at 30 µM ([1]; % ACh maximum at 30 μM, rat M4): 4%; IC50 [1]: 130 nM; remaining activity at 30 µM [2, 3]: 3%; IC50 [2]: 18 nM

**Q.** `O=S1(=O)CCC(N2C[C@H]3C[C@H](Nc4ccc(-c5cc(F)ccc5Cl)nn4)C[C@H]3C2)CC1` [compound 79, 4-((3aR,5s,6aS)-5-((6-(2-chloro-5-fluorophenyl)pyridazin-3-yl)amino)hexahydrocyclopenta[c]pyrrol-2(1H)-yl)tetrahydro-2H-thiopyran 1,1-dioxide] was tested. Which remaining activity at 30 µM ([1]; % ACh maximum at 30 μM, rat M4) did it give?
**A.** 42%

**Q.** And the IC50 [1]?
**A.** > 10000 nM

**Q.** And the remaining activity at 30 µM [2, 3]?
**A.** 8%

**Q.** And the IC50 [2]?
**A.** 1750 nM

**Q.** Which results are given for `CC1(C)C(=O)N(C2CC2)c2nnc(N[C@H]3C[C@@H]4CN(CC5CCOCC5)C[C@@H]4C3)cc21` [compound 70, 7-cyclopropyl-5,5-dimethyl-3-(((3aR,5s,6aS)-2-((tetrahydro-2H-pyran-4-yl)methyl)octahydrocyclopenta[c]pyrrol-5-yl)amino)-5,7-dihydro-6H-pyrrolo [2,3-c]pyridazin-6-one]?
**A.** remaining activity at 30 µM ([1]; % ACh maximum at 30 μM, rat M4): 13%; IC50 [1]: 3970 nM; remaining activity at 30 µM [2, 3]: 4%; IC50 [2]: 12.8 nM

**Q.** What does the source list for `COCCCN1C[C@H]2C[C@H](Nc3ccc(-c4cc(F)ccc4Cl)nn3)C[C@H]2C1` [compound 1, (3aR,5s,6aS)-N-(6-(2-chloro-5-fluorophenyl)pyridazin-3-yl)-2-(3-methoxypropyl)octahydrocyclopenta[c]pyrrol-5-amine]?
**A.** remaining activity at 30 µM ([1]; % ACh maximum at 30 μM, rat M4): 5%; IC50 [1]: 740 nM; remaining activity at 30 µM [2, 3]: 4%; IC50 [2]: 42.2 nM

**Q.** What does the source list for `Cc1cc(CN2C[C@H]3C[C@H](Nc4ccc([S+]([O-])c5ccccc5)nn4)C[C@H]3C2)ccc1F` (stereo partly drawn) [compound 32, (3aR,5s,6aS)-2-(4-fluoro-3-methylbenzyl)-N-(6-(phenylsulfinyl)pyridazin-3-yl)octahydrocyclopenta[c]pyrrol-5-amine]?
**A.** remaining activity at 30 µM ([1]; % ACh maximum at 30 μM, rat M4): 3%; IC50 [1]: 970 nM; remaining activity at 30 µM [2, 3]: 3%; IC50 [2]: 242 nM

**Q.** What does the source list for `[O-][S+](c1ccccc1)c1ccc(N[C@H]2C[C@@H]3CN(CC4CCOCC4)C[C@@H]3C2)nn1` (stereo partly drawn) [compound 28, (3aR,5s,6aS)-N-(6-(phenylsulfinyl)pyridazin-3-yl)-2-((tetrahydro-2H-pyran-4-yl)methyl)octahydrocyclopenta[c]pyrrol-5-amine]?
**A.** remaining activity at 30 µM ([1]; % ACh maximum at 30 μM, rat M4): 8%; IC50 [1]: 113 nM; remaining activity at 30 µM [2, 3]: 5%; IC50 [2]: 57.2 nM

**Q.** Which results are given for `Cn1cc2cc(-c3ccc(N[C@H]4C[C@@H]5CN(C6CCOC(C)(C)C6)C[C@@H]5C4)nn3)ccc2n1` (stereo partly drawn) [compound 63, (3aR,5s,6aS)-2-(2,2-dimethyltetrahydro-2H-pyran-4-yl)-N-(6-(2-methyl-2H-indazol-5-yl)pyridazin-3-yl)octahydrocyclopenta[c]pyrrol-5-amine]?
**A.** remaining activity at 30 µM ([1]; % ACh maximum at 30 μM, rat M4): 5%; IC50 [1]: 374 nM; remaining activity at 30 µM [2, 3]: 3%; IC50 [2]: 9.53 nM

**Q.** For `CC1(C)CC(N2C[C@H]3C[C@H](Nc4ccc(S(=O)(=O)C5CCCCC5)nn4)C[C@H]3C2)CCO1` (stereo partly drawn) [compound 66, (3aR,5s,6aS)-N-(6-(cyclohexylsulfonyl)pyridazin-3-yl)-2-(2,2-dimethyltetrahydro-2H-pyran-4-yl)octahydrocyclopenta[c]pyrrol-5-amine], which “Rat M4 Emin (%)” value ([1]; % ACh maximum at 30 μM, rat M4) is on record?
**A.** 7%

**Q.** And the IC50 [1]?
**A.** 460 nM

**Q.** And the “Human M4 Emin (%)” value [2, 3]?
**A.** 5%
